The record followed here is US12612403B2, “Nitrogen-containing heterocyclic derivative inhibitor, and preparation method therefor and use thereof” (SHANGHAI HANSOH BIOMEDICAL CO., LTD., priority 2024, dated 2026).

As usually defined, the IC50 is the point on the concentration scale where inhibition reaches its midpoint. As a reminder, the MRT is a mean duration of stay, worked out from the concentration-time curve. Usually Tmax stands for the time at which the peak concentration occurs.

The subject of data set [1] is PCSK9 secreted by HepG2 cells. The data set is described as follows: Effect on the concentration of PCSK9 secreted by HepG2 cells (ELISA). It counts as cell-based. To be noted: Homo sapiens, 48 hours, PCSK9 in culture medium by ELISA. The method, then:
1. Experimental objective: To detect the inhibitory effect of the compounds on PCSK9.
2. Experimental method: • 1) HepG2 cell strain was cultured in the complete culture medium at 37° C., 5% CO2 to 70-90% confluence. • 2) The cells were digested and resuspended in the experimental culture medium, inoculated at 25,000 cells/well/200 μL in a 96-well cell culture plate, and cultured at 37° C. and 5% CO2 for 20-24 hours. • 3) The culture medium was removed from the cell culture plate, and the cell culture plate was washed once by adding 200 ul of the experimental culture medium to each well. • 4) Preparation of positive control compound and compound to be tested: the positive control compound and the compound to be tested were diluted on the compound plate. • 5) The diluted compound was added to the cell culture plate at 250 μL per well and incubated at 37° C. and 5% CO2 for 48 hours. • 6) The cell culture medium was collected at 200 μL per well and cryopreserved at −80° C. for later use. • 7) A sample of the cell culture medium was taken from the −80° C. cryopreservation condition, dissolved, vortexed, and centrifuged for later use. • 8) Preparation of standard curve: corresponding volumes of Dilution buffer were successively added to respective standard tubes, and in the order of the concentrations of 10, 5, 2.5, 1.25, 0.625, 0.313, 0.16, 0 ng/mL, the standard was diluted in series by taking the corresponding volume from the original tube or the last concentration tube. • 9) Preparation of washing liquid: 10x Wash buffer was diluted into 1x with Milli-Q for later use. • 10) According to the standard curve wells and sample wells set according to a plate map, 100 μL/well of the corresponding standards and culture medium samples were added to the wells, with 2 replicate wells. A self-adhesive seal was applied, the plate was placed on a plate shaker at room temperature, gently shaken, uniformly mixed, and incubated for 1 hour. • 11) The plate was placed on the plate washer, the washing liquid was set to 350 μL per well, and the plate was washed 4 times repeatedly. • 12) 100 μL/well of an HRP-conjugated detection antibody was added, a self-adhesive seal was applied, and the plate was placed on the plate shaker, well mixed uniformly, and incubated for 1 hour. • 13) The plate was placed on the plate washer, the washing liquid was set to 350 μL per well, and the plate was washed 4 times repeatedly. • 14) 100 μL/well of Substrate reagent was added, and the plate was placed in the dark, applied with a self-adhesive seal, placed on the plate shaker, well mixed uniformly, and incubated for 10-20 minutes. • 15) 100 μL of Stop solution (1N H2SO4) was added to each well and mixed uniformly. • 16) The optical density (OD) value in each well was measured in sequence at a wavelength of 450 nm by the microplate reader. Detection was carried out within 30 min after the reaction was stopped.
3. Experimental data processing method: After the OD values were read by the microplate reader, the OD value of the 0-concentration standard in the standard group was subtracted from the OD values of the standards, control group, and samples to obtain the actual OD values for these wells. A standard curve was plotted with Graphpad and the concentration of the sample was calculated. If the dilution was performed during the sample detection, the calculated sample concentration was necessarily multiplied by the corresponding dilution ratio in the final calculation, which was the actual concentration of the sample. Inhibition rate=(actual concentration in control−actual concentration in sample)/actual concentration in control*100. According to the inhibition rates corresponding to the different concentrations, IC50 was derived by Graphpad.
(ELISA stands for enzyme-linked immunosorbent assay.)

The target in the next data set is T1, PCSK9 protein (Homo sapiens, UniProt Q8NBP7).
T1 construct: purchased Sino biology (Sino Biological) 29698-H08H
T1 sequence (Q8NBP7 153-692): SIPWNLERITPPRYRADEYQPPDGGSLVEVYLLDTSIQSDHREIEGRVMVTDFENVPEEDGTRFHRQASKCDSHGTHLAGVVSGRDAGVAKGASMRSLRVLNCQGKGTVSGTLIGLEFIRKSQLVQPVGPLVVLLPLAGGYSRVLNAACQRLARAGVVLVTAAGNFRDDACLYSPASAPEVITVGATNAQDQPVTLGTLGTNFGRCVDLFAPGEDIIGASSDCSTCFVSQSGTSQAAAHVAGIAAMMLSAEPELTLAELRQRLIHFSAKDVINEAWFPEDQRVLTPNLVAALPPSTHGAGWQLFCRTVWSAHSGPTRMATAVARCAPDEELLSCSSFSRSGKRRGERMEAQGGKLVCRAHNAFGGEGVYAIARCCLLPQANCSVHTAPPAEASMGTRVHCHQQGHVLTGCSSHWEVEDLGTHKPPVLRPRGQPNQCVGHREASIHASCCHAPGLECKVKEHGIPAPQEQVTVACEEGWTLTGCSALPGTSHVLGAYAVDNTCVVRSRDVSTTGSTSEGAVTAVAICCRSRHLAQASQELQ
Briefly: Binding ability to PCSK9 protein (HTRF). Particulars: PCSK9-His, Alexa Fluor 647 probe compound. How it is done:
1. Experimental objective: To detect the action of compounds to bind PCSK9 protein by an HTRF method.
3. Experimental data processing method: Four-parameter log(inhibitor) vs. response—Variable slope (four parameters) in XLit was used to perform non-linear fitting of the compound concentration and the corresponding inhibition rate, and IC50 was calculated.
(In general: In TR-FRET formats the signal depends on donor and acceptor labels being close together.)

The nature of data set [2]: Pharmacokinetic determination in mice (PO 5 mg/kg, IV 1 mg/kg). The class given is in vivo, C57BL/6J mice. To be noted: male, C57BL/6J, mouse, plasma, C57 mice, PO administration, 5 mpk. The method, then:
1. Experimental objective: C57BL/6J mice were used as test animals to study the pharmacokinetic behavior of the compounds of the present disclosure in mice (plasma) after oral and intravenous administration.
2.2 Test animals: C57 mice, male, purchased from Shanghai Bk Lab Animal Co., Ltd., with animal production license number (SCXK (Shanghai) 2013-0006 N0.311620400001794).
2.3 Drug preparation: Preparation of oral drug: 10% Solutol HS15
10 g of Solutol HS15 solid was weighed, dissolved in 90 mL of pure water, uniformly mixed, stirred, and ultrasonically treated to form a clear solution. The compound of the present disclosure was weighed and dissolved in this solution, uniformly shaken, and ultrasonically treated for 15 minutes to obtain a colorless clear solution with a concentration of 0.5 mg/mL. Preparation of intravenous drug: 5% DMSO+10% Solutol HS15+85% PBS, the compound of the present disclosure was weighed, 5% DMSO was first added on the basis of the proportion relative to the total volume of administration, and the mixture was vortexed and ultrasonically treated for 2 min until it was completely dissolved; 10% of Solutol HS15 was then added, and the mixture was vortexed and ultrasonically treated for 2 min until it was completely dissolved; and finally, 85% of PBS was added, and the mixture was vortexed, ultrasonically treated for 5 min, and filtered through a 0.22 um filter membrane to obtain a colorless and transparent clear solution with a concentration of 0.2 mg/mL.
2.4 Administration: 3 male C57 mice were fasted overnight and then respectively administered PO at a dose of 5 mg/kg and a volume of 10 mL/kg. 3 male C57 mice were fasted overnight and then respectively administered IV at a dose of 1 mg/kg and a volume of 5 mL/kg.
2.5 Sample collection: Before and after administration of mice, 0.04 mL of blood was collected from the orbit at 0.083 (iv), 0.25, 0.5, 1, 2, 4, 8, and 24 hours, and placed in EDTA-K2 test tubes, which was centrifuged at 6000 rpm at 4° C. for 6 min to separate plasma which was stored at −80° C.; and the […] were fed 4 h after administration.
2.6 Determination results: The final determination results were obtained by using an LCMS/MS method.
3. Experimental results: The main pharmacokinetic parameters were calculated using WinNonlin 6.1.

With `O=C1c2cccc(C(F)(F)F)c2CN1c1ccc(N[C@H]2CC[C@H](Nc3nc4cc(F)ccn4n3)C2)nc1` [Example 26], the IC50 in data set [1] worked out at 22.8 µM.
In turn, `O=C1c2ncc(F)cc2CN1c1ccc(N[C@H]2CC[C@H](Nc3nc4cc(C(F)(F)F)ccn4n3)C2)nc1` [Example 27, 3-Fluoro-6-(6-(((1S,3S)-3-((7-(trifluoromethyl)-[1,2,4]triazolo[1,5-a]pyridin-2-yl)amino)cyclopentyl)amino)pyridin-3-yl)-5,6-dihydro-7H-pyrrolo[3,4-b]pyridin-7-one] gave an IC50 in data set [1] of 12 µM.
In turn, `CC(C)(C)c1ccc2c(n1)C(=O)N(c1ccc(N[C@H]3CC[C@H](Nc4nc5cc(F)ccn5n4)C3)nc1)C2` [Example 49, 2-(Tert-butyl)-6-(6-(((1S,3S)-3-((7-fluoro-[1,2,4]triazolo[1,5-a]pyridin-2-yl)amino)cyclopentyl)amino)pyridin-3-yl)-5,6-dihydro-7H-pyrrolo[3,4-b]pyridin-7-one] came in with an IC50 in data set [1] of 2.7 µM.
As for `Cc1cc2c(c(C)n1)CN(c1ccc(N[C@H]3CC[C@H](Nc4nc5cc(F)ccn5n4)C3)nc1)C2=O` [Example 51, 2-(6-(((1S,3S)-3-((7-fluoro-[1,2,4]triazolo[1,5-a]pyridin-2-yl)amino)cyclopentyl)amino)pyridin-3-yl)-4,6-dimethyl-2,3-dihydro-1H-pyrrolo[3,4-c]pyridin-1-one], the IC50 in data set [1] is 21.3 µM.
In the case of `O=C1N(c2ccc(N[C@H]3CC[C@H](Nc4nc5cc(F)ccn5n4)C3)nc2)CCC12CC2` [Example 54, 5-(6-(((1S,3S)-3-((7-fluoro-[1,2,4]triazolo[1,5-a]pyridin-2-yl)amino)cyclopentyl)amino)pyridin-3-yl)-5-azaspiro[2.4]heptan-4-one], the IC50 in data set [1] was 23.4 µM.
`Cc1nccc2c1CN(c1ccc(N[C@H]3CC[C@H](Nc4nc5cc(C(F)(F)F)ccn5n4)C3)nc1)C2=O` [Example 57, 4-methyl-2-(6-(((1S,3S)-3-((7-(trifluoromethyl)-[1,2,4]triazolo[1,5-a]pyridin-2-yl)amino)cyclopentyl)amino)pyridin-3-yl)-2,3-dihydro-1H-pyrrolo[3,4-c]pyridin-1-one] returned an IC50 in data set [1] of 1.7 µM.
In turn, `O=C1N(c2ccc(N[C@H]3CC[C@H](Nc4nc5cc(C(F)(F)F)ccn5n4)C3)nc2)CCC12CC2` [Example 58, 5-(6-(((1S,3S)-3-((7-(trifluoromethyl)-[1,2,4]triazolo[1,5-a]pyridin-2-yl)amino)cyclopentyl)amino)pyridin-3-yl)-5-azaspiro[2.4]heptan-4-one] had an IC50 in data set [1] of 11.1 µM.
`Cc1cccnc1C(=O)Nc1ccc(N[C@H]2CC[C@H](Nc3nc4cc(C(F)(F)F)ccn4n3)C2)nc1` [Example 60]: 27.4 µM corresponded to half-maximal inhibition in data set [1] (IC50).
In the case of `O=C1c2cc(F)cnc2CN1c1ccc(N[C@H]2CC[C@H](Nc3nc4cc(C(F)(F)F)ccn4n3)C2)nc1` [Example 61, 3-fluoro-6-(6-(((1S,3S)-3-((7-(trifluoromethyl)-[1,2,4]triazolo[1,5-a]pyridin-2-yl)amino)cyclopentyl)amino)pyridin-3-yl)-6,7-dihydro-5H-pyrrolo[3,4-b]pyridin-5-one], the IC50 in data set [1] is 0.6 µM.
For `CN(Cc1ccc(N[C@H]2CC[C@H](Nc3nc4cc(C(F)(F)F)ccn4n3)C2)nc1)C(=O)c1ccccn1` [Example 62, N-methyl-N-(6-(((1S,3S)-3-((7-(trifluoromethyl)-[1,2,4]triazolo[1,5-a]pyridin-2-yl)amino)cyclopentyl)amino)pyridin-3-yl)methylpicolinamide], in data set [1], the half-maximal inhibitory concentration (IC50) was determined as 17.6 µM.
Molecule `CC(C)(O)c1cccn(-c2ccc(N[C@H]3CC[C@H](Nc4nc5cc(C(F)(F)F)ccn5n4)C3)nc2)c1=O` [Example 63, 3-(2-hydroxypropan-2-yl)-6′-(((1S,3S)-3-((7-(trifluoromethyl)-[1,2,4]triazolo[1,5-a]pyridin-2-yl)amino)cyclopentyl)amino)-2H-[1,3′-bipyridine]-2-one] had an IC50 in data set [1] of 26.5 µM.
On to `N#Cc1cc2c(cn1)CN(c1ccc(N[C@H]3CC[C@H](Nc4nc5cc(C(F)(F)F)ccn5n4)C3)nc1)C2=O` [Example 66, 1-carbonyl-2-(6-(((1S,3S)-3-((7-(trifluoromethyl)-[1,2,4]triazolo[1,5-a]pyridin-2-yl)amino)cyclopentyl)amino)pyridin-3-yl)-2,3-dihydro-1H-pyrrolo[3,4-c]pyridine-6-carbonitrile], for which it took 0.8 µM to reach half-maximal inhibition in data set [1] (IC50).
As for `Cc1ccc2c(n1)CN(c1ccc(N[C@H]3CC[C@H](Nc4nc5cc(C(F)(F)F)ccn5n4)C3)nc1)C2=O` [Example 67, 2-methyl-6-(6-(((1S,3S)-3-((7-(trifluoromethyl)-[1,2,4]triazolo[1,5-a]pyridin-2-yl)amino)cyclopentyl)amino)pyridin-3-yl)-6,7-dihydro-5H-pyrrolo[3,4-b]pyridin-5-one], half-maximal inhibition in data set [1] (IC50) was put at 17.1 µM.
The same measure, in the same setting: next, `O=c1[nH]cccc1-c1ccc(N[C@H]2CC[C@H](Nc3nc4cc(C(F)(F)F)ccn4n3)C2)nc1` [Example 73, 6′-(((1S,3S)-3-((7-(trifluoromethyl)-[1,2,4]triazolo[1,5-a]pyridin-2-yl)amino)cyclopentyl)amino)-[3,3′-bipyridine]-2(1H)-one]: 14.3 µM.
In turn, `Cc1ccc2c(n1)CN(c1ccc(N[C@H]3CC[C@H](Nc4nc5cc(OC(F)F)ccn5n4)C3)nc1)C2=O` [Example 131] had an IC50 at PCSK9 protein of 0.0067 µM. Besides, the AUC(0-inf) in data set [2] (read-out: Area under the curve AUC0-∞) was 22400 ng·h/mL. The half-life in data set [2] (read-out: Half-life t1/2 (converted)) was 3.4 h. Also, the MRT in data set [2] (read-out: Mean residence time MRT) turned out to be 2.7 h. Moreover, the Cmax in data set [2] (read-out: Plasma concentration Cmax) was 7170 ng/mL. Also, the Tmax in data set [2] (read-out: Time to peak tmax) stood at 0.5 h.
